This is an account of results in patent US20160271263A1 (Novo Nordisk A/S, priority 2010, published 2016).

pEC50: −log10 of the molar value. Numbered stars: 1 amine (or outer) side, 2 acyl side, 3 side chain; on linkers, the order of the positions; unused ones are H or OH. Side chains are listed from the residue outwards. Peptide text beside a SMILES is read from it. * marks the point of attachment. C18 diacid = O=C(O)CCCCCCCCCCCCCCCCC(=O)*; γGlu = O=C(O)[C@H](CCC(=O)[*:2])N[*:1]; AEEA = NCCOCCOCC(=O)O

glucagon receptor, sequence (P47871 26-477): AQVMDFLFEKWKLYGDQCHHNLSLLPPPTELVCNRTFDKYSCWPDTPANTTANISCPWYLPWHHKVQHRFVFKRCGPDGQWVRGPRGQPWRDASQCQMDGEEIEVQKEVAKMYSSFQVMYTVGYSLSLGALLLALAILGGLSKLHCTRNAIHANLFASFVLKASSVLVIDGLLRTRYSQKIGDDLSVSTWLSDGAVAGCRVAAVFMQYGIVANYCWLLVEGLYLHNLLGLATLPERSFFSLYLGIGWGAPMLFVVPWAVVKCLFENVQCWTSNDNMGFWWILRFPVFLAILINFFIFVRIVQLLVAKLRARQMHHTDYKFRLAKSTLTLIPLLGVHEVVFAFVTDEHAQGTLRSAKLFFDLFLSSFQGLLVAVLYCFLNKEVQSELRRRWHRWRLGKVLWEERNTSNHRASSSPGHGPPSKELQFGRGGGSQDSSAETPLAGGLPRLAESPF

The assay has as its target glucagon receptor (Homo sapiens, UniProt P47871). The assay is described as follows: cell-based.
As for `CC(C)C[C@H](NC(=O)[C@H](Cc1ccc(O)cc1)NC(=O)[C@H](CCCCN)NC(=O)[C@H](CO)NC(=O)[C@H](Cc1ccc(O)cc1)NC(=O)[C@H](CC(=O)O)NC(=O)[C@H](CO)NC(=O)[C@@H](NC(=O)[C@H](Cc1ccccc1)NC(=O)[C@@H](NC(=O)CNC(=O)[C@H](CCC(N)=O)NC(=O)[C@H](CO)NC(=O)[C@@H](N)Cc1c[nH]cn1)[C@@H](C)O)[C@@H](C)O)C(=O)N[C@@H](CC(=O)O)C(=O)N[C@@H](CO)C(=O)N[C@@H](CCCNC(=N)N)C(=O)N[C@@H](CCCNC(=N)N)C(=O)N[C@@H](C)C(=O)N[C@@H](CCC(N)=O)C(=O)N[C@@H](CC(=O)O)C(=O)N[C@@H](Cc1ccccc1)C(=O)N[C@H](C(=O)N[C@@H](CCC(N)=O)C(=O)N[C@@H](Cc1c[nH]c2ccccc12)C(=O)N[C@@H](CC(C)C)C(=O)N[C@@H](CC(C)C)C(=O)N[C@@H](CCCCNC(=O)CC[C@H](NC(=O)CC[C@H](NC(=O)COCCOCCNC(=O)COCCOCCNC(=O)CC[C@H](NC(=O)CCCCCCCCCCCCCCCCC(=O)O)C(=O)O)C(=O)O)C(=O)O)C(=O)N1CCC[C@H]1C(=O)O)C(C)C` [Example 86, N^ε28-[(4S)-4-carboxy-4-[[(4S)-4-carboxy-4-[[2-[2-[2-[[2-[2-[2-[[(4S)-4-carboxy-4-(17-carboxyheptadecanoylamino)butanoyl]amino]ethoxy]ethoxy]acetyl]amino]ethoxy]ethoxy]acetyl]amino]butanoyl]amino]butanoyl]-[Leu^27,Lys^28,Pro^29]-Glucagon], the pEC50 is 9.72.

Take `CC(C)C[C@H](NC(=O)[C@H](Cc1ccc(O)cc1)NC(=O)[C@H](CCCCN)NC(=O)[C@H](CO)NC(=O)[C@H](Cc1ccc(O)cc1)NC(=O)[C@H](CC(=O)O)NC(=O)[C@H](CO)NC(=O)[C@@H](NC(=O)[C@H](Cc1ccccc1)NC(=O)[C@@H](NC(=O)CNC(=O)[C@H](CCC(N)=O)NC(=O)[C@H](CO)NC(=O)[C@@H](N)Cc1c[nH]cn1)[C@@H](C)O)[C@@H](C)O)C(=O)N[C@@H](CC(=O)O)C(=O)N[C@@H](CO)C(=O)N[C@@H](CCCCNC(=O)COCCOCCNC(=O)COCCOCCNC(=O)CC[C@H](NC(=O)CCCCCCCCCCCCCCCCC(=O)O)C(=O)O)C(=O)N[C@@H](CCCNC(=N)N)C(=O)N[C@@H](C)C(=O)N[C@@H](CCC(N)=O)C(=O)N[C@@H](CC(=O)O)C(=O)N[C@@H](Cc1ccccc1)C(=O)N[C@H](C(=O)N[C@@H](CCC(N)=O)C(=O)N[C@@H](Cc1c[nH]c2ccccc12)C(=O)N[C@@H](CC(C)C)C(=O)N[C@@H](CC(C)C)C(=O)N[C@@H](CC(N)=O)C(=O)N[C@H](C(=O)O)[C@@H](C)O)C(C)C` [Example 19]: the negative logarithm of the EC50 (pEC50) is 10.03.

For the compound `CC(C)C[C@H](NC(=O)[C@H](Cc1ccc(O)cc1)NC(=O)[C@H](CCCCN)NC(=O)[C@H](CO)NC(=O)[C@H](Cc1ccc(O)cc1)NC(=O)[C@H](CC(=O)O)NC(=O)[C@H](CO)NC(=O)[C@@H](NC(=O)[C@H](Cc1ccccc1)NC(=O)[C@@H](NC(=O)CNC(=O)[C@H](CCC(N)=O)NC(=O)[C@H](CO)NC(=O)[C@@H](N)Cc1c[nH]cn1)[C@@H](C)O)[C@@H](C)O)C(=O)N[C@@H](CC(=O)O)C(=O)N[C@@H](CO)C(=O)N[C@@H](CCCCN)C(=O)N[C@@H](CCCNC(=N)N)C(=O)N[C@@H](C)C(=O)N[C@@H](CCC(N)=O)C(=O)N[C@@H](CCC(=O)O)C(=O)N[C@@H](Cc1ccccc1)C(=O)N[C@H](C(=O)N[C@@H](CCCCNC(=O)COCCOCCNC(=O)COCCOCCNC(=O)CC[C@H](NC(=O)CCCCCCCCCCCCCCCCC(=O)O)C(=O)O)C(=O)N[C@@H](Cc1c[nH]c2ccccc12)C(=O)N[C@@H](CC(C)C)C(=O)N[C@@H](CC(C)C)C(=O)N[C@@H](CO)C(=O)N[C@H](C(N)=O)[C@@H](C)O)C(C)C` [Example 40, N^ε24-([2-[2-[2-[[2-[2-[2-[[(4S)-5-hydroxy-4-[(18-hydroxy-18-oxooctadecanoyl)amino]-5-oxopentanoyl]amino]ethoxy]ethoxy]acetyl]amino]ethoxy]ethoxy]acetyl]) [Lys^17, Glu^21,Lys^24,Leu^27,Ser^28]Glucagon peptide amide] (H-HSQGTFTSDYSKYLDSKRAQEFVK([AEEA-AEEA-γGlu-C18 diacid])WLLST-NH2; N-terminus assumed), the pEC50 was 11.15.

By pEC50 is commonly meant the EC50 on a negative log10 scale, so that one unit is a factor of ten. High values mean a low EC50, low ones a high EC50.
